Experimental data reported in US4732977A, “Carbapenem antibiotics” (priority 1986, dated 1988).
≈ marks a conversion by molar mass, not a printed value. Counter-ions that a name gives are not always drawn. Like-named read-outs stand apart in the source and are kept apart here.

Legend:
[1] = tested on: P. aeruginosa A-20599; assay: Protective effect in intramuscular treatment of infected mice; type: in vivo; conditions: Pseudomonas aeruginosa, A20599, im, i.m. 0 and 2 h postinfection, challenge 1.4 × 10^5 organisms, * = historical data, read-out: PD50/Treatment
[2] = tested on: E. coli A20341-1; assay: M.I.C., tube dilution; type: cell-based; conditions: Escherichia coli, A203411; 10^-4; read-out: MIC
[3] = tested on: B. fragilis A22863; assay: M.I.C., tube dilution; type: cell-based; conditions: Bacteroides fragilis, overnight incubation at 37° C., Nutrient Broth
[4] = tested on: P. morganii A15153; assay: M.I.C., tube dilution; type: cell-based; conditions: Morganella morganii, A15153
[5] = tested on: H. influenzae A21518; assay: M.I.C., tube dilution; type: cell-based; conditions: Haemophilus influenzae, overnight incubation at 37° C., Nutrient Broth
[6] = tested on: S. aureus A-9606; assay: Protective effect in intramuscular treatment of infected mice; type: in vivo; conditions: Staphylococcus aureus, read-out: PD50/treatment
Method: (§1) The PD50 (dose in mg/kg required to give protection to 50% of the infected mice) is indicated.
with drugs 0 and 2 hours postinfection.
(§2) The PD50 (dose in mg/kg) required to give protection to 50% of the infected mice is indicated.

[7] = tested on: P. mirabilis A-9900; assay: as above; type: in vivo; conditions: Proteus mirabilis
Method: as §1
with drugs 0 and 2 hours postinfection.
as §2

[8] = tested on: S. aureus A-9537; assay: M.I.C., tube dilution; type: cell-based; conditions: Staphylococcus aureus
[9] = tested on: B. fragilis A22862; assay: M.I.C., tube dilution; type: cell-based; conditions: Bacteroides fragilis, overnight incubation at 37° C., Nutrient Broth
[10] = tested on: P. aeruginosa A-9843A; assay: M.I.C., tube dilution; type: cell-based; conditions: Pseudomonas aeruginosa, A9843A, overnight incubation at 37° C., Nutrient Broth
[11] = tested on: P. aeruginosa A-9843a; assay: animal or person; type: in vivo, mice; conditions: Pseudomonas aeruginosa, A9843A, im
Method: as §1
with drugs 0 and 2 hours postinfection.
as §2

[12] = tested on: E. coli A15119; assay: M.I.C., tube dilution; type: cell-based; conditions: Escherichia coli, A15119, 10^-4 dil.
[13] = tested on: E. coli A-15119; assay: Protective effect in intramuscular treatment of infected mice; type: in vivo; conditions: Escherichia coli
Method: as §1
with drugs 0 and 2 hours postinfection.
as §2

[14] = tested on: B. fragilis A22053; assay: M.I.C., tube dilution; type: cell-based; conditions: Bacteroides fragilis, overnight incubation at 37° C., Nutrient Broth
[15] = in vivo; conditions: mouse
[16] = tested on: H. influenzae A-9833; assay: M.I.C., tube dilution; type: cell-based; conditions: Haemophilus influenzae, A9833; overnight incubation at 37° C., Nutrient Broth
[17] = tested on: P. aeruginosa A-20481; assay: Protective effect in intramuscular treatment of infected mice; type: in vivo; conditions: Pseudomonas aeruginosa, A20481, im, i.m. 0 and 2 h postinfection, challenge 5.4 × 10^4 organisms, * = historical data, read-out: PD50/Treatment
[18] = Blood levels in mice after intramuscular administration;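 note: compounds dissolved in 0.1 M phosphate buffer at pH 7, data from one experiment using four mice for each compound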
Excerpt: Compounds were solubilized in 0.1 M phosphate buffer pH 7.
a single test; 4 mice used per compound.
Compounds were solubilized in 0.1 M phosphate buffer, pH 7.
on a single test; 4 mice per compound.

[19] = Toxicity after intracranial administration to mice; conditions: mouse, in vivo
[20] = tested on: S. faecalis A-20688; assay: Protective effect in intramuscular treatment of infected mice; type: in vivo; conditions: Enterococcus faecalis, A20688, im, i.m. 0 and 2 h postinfection, challenge 2.3 × 10^8 organisms, * = historical data, read-out: PD50/Treatment
[21] = Urinary recovery after intramuscular administration to mice; type: in vivo; conditions: mouse, urine, im, 20 mg/kg, 20 mg/kg i.m.
Excerpt: | a single test; 4 mice per compound.

[22] = tested on: P. aeruginosa A21213; assay: M.I.C., tube dilution; type: cell-based; conditions: Pseudomonas aeruginosa, A21213, overnight incubation at 37° C., Nutrient Broth; read-out: MIC
[23] = tested on: S. faecalis A20688; assay: M.I.C., tube dilution; type: cell-based; conditions: Enterococcus faecalis, A20688, overnight incubation at 37° C., Nutrient Broth; read-out: MIC
[24] = tested on: P. vulgaris A21559; assay: M.I.C., tube dilution; type: cell-based; conditions: Proteus vulgaris, A21559, overnight incubation at 37° C., Nutrient Broth; read-out: MIC
[25] = tested on: S. aureus A15097 (Meth-res.); assay: M.I.C., tube dilution; type: cell-based; conditions: Staphylococcus aureus, overnight incubation at 37° C.
[26] = tested on: E. cloacae A-9656; assay: M.I.C., tube dilution; type: cell-based; conditions: Enterobacter cloacae, A9656, overnight incubation at 37° C., Nutrient Broth; read-out: MIC
[27] = tested on: S. marcescens A20019; assay: M.I.C., tube dilution; type: cell-based; conditions: Serratia marcescens, A20019; overnight incubation at 37° C., Nutrient Broth; read-out: MIC
[28] = tested on: K. pneumoniae A-9664; assay: M.I.C., tube dilution; type: cell-based; conditions: Klebsiella pneumoniae, A9664, overnight incubation at 37° C., Nutrient Broth; read-out: MIC
[29] = tested on: P. mirabilis A-9900; assay: M.I.C., tube dilution; type: cell-based; conditions: Proteus mirabilis, A9900, overnight incubation at 37° C., Nutrient Broth; read-out: MIC
[30] = tested on: B. fragilis A22696; assay: M.I.C., tube dilution; type: cell-based; conditions: Bacteroides fragilis, overnight incubation at 37° C., Nutrient Broth
[31] = tested on: P. rettgeri A22424; assay: M.I.C., tube dilution; type: cell-based; conditions: Providencia rettgeri, A22424; overnight incubation at 37° C., Nutrient Broth; read-out: MIC
[32] = tested on: S. pyogenes A-9604; assay: M.I.C., tube dilution; type: cell-based; conditions: Streptococcus pyogenes, A9604; overnight incubation at 37° C., Nutrient Broth; read-out: MIC
[33] = tested on: E. cloacae A-9659; assay: M.I.C., tube dilution; type: cell-based; conditions: Enterobacter cloacae, A9659; overnight incubation at 37° C., Nutrient Broth; read-out: MIC
[34] = tested on: K. pneumoniae A9664; assay: Protective effect in intramuscular treatment of infected mice; type: in vivo; conditions: Klebsiella pneumoniae, im, K. pneumoniae A9664, read-out: PD50/treatment
Excerpt: as §2

[35] = tested on: K. pneumoniae A20468; assay: M.I.C., tube dilution; type: cell-based; conditions: Klebsiella pneumoniae, A20468, overnight incubation at 37° C., Nutrient Broth; read-out: MIC
[36] = tested on: P. aeruginosa A24081; assay: Protective effect in intramuscular treatment of infected mice; type: in vivo; conditions: Pseudomonas aeruginosa, A24081, im, read-out: PD50/treatment
Excerpt: as §2

Question: What does the source list for `C[C@@H](O)[C@H]1C(=O)N2C(C(=O)[O-])=C(SCc3cc[n+](C)cc3)C[C@H]12` [Example 1, 1-Methyl-4-[2-carboxy-6α-[1(R)-hydroxyethyl]-7-oxo-1-azabicyclo[3.2.0]hept-2-en-3-thiomethyl]pyridinium hydroxide inner salt]?
Answer: ED50 [1]: 0.7 mg/kg; MIC [2]: 0.03 µg/mL; MIC [3]: 0.03 µg/mL; MIC [4]: 0.13 µg/mL; MIC [5]: 16 µg/mL; ED50 ([6]; A9606, im): 0.09 mg/kg; ED50 ([7]; A9900, im, read-out: PD50/Treatment): 3.3 mg/kg; MIC ([8]; A9537, overnight incubation at 37° C., Nutrient Broth): 0.13 µg/mL; MIC ([8]; A9537, +50% serum): 0.03 µg/mL; MIC [9]: 0.03 µg/mL; MIC [10]: 4 µg/mL; ED50 ([11]; mice, i.m. 0 and 2 h postinfection, challenge 5.5 × 10^4 organisms, * = historical data, read-out: PD50/Treatment): 0.3 mg/kg; MIC [12]: 0.06 µg/mL; ED50 ([13]; A15119, im, 3.5 h, read-out: PD50/Treatment): 0.6 mg/kg; MIC [14]: 0.03 µg/mL; NOAEL [15]: 5 mg/kg; MIC [16]: 16 µg/mL; ED50 [17]: 0.63 mg/kg; AUC ([18]; mice, 20 mg/kg i.m. (table 9)): 6300 ng·h/mL; T1/2 ([18]; mice, 20 mg/kg i.m. (table 9)): 10 min; AUC ([18]; mouse, blood, im, 20 mg/kg): 6300 ng·h/mL; Cmax ([18]; mouse, blood, im, 20 mg/kg): 14000 ng/mL; half-life ([18]; mouse, in vivo, im, 20 mg/kg): 10 min; LD50 [19]: 14 mg/kg; ED50 [20]: 3.3 mg/kg; dose excreted at 3 h ([21]; 0-3 hours): 26.1%; dose excreted at 24 h ([21]; 0-24 hours): 26.7 ± 6.7%; dose excreted at 6 h ([21]; 3-6 hours): 0.5%; dose excreted at 24 h ([21]; 6-24 hours): 0.1%; MIC [22]: 1 µg/mL; MIC [23]: 0.5 µg/mL; MIC [24]: 0.13 µg/mL

Question: With `C[C@@H](O)[C@H]1C(=O)N2C(C(=O)[O-])=C(SCc3cccc[n+]3C)C[C@H]12` [Example 4, 3-(N-Methylpyridine-2-yl-methanethio)-6α-[1-(R)-hydroxyethyl]-7-oxo-1-azabicyclo(3.2.0)hept-2-ene-2-carboxylate] as the compound, how does the MIC [25] read?
Answer: 4 µg/mL (≈ 12 µM)

Question: And the MIC [5]?
Answer: 2 µg/mL (≈ 5.98 µM)

Question: What about the ED50 ([6]; im, mice, i.m., S. aureus A9606) of the same compound?
Answer: 0.1 mg/kg

Question: And the ED50 ([7]; im, mice, i.m., P. mirabilis A9900, read-out: PD50/treatment)?
Answer: 4 mg/kg

Question: And the MIC [26]?
Answer: 0.06 µg/mL (≈ 0.179 µM)

Question: What about the MIC [27] of the same compound?
Answer: 0.03 µg/mL (≈ 0.0897 µM)

Question: What about the MIC ([8]; A9537, +50% serum, read-out: MIC) of the same compound?
Answer: 0.03 µg/mL (≈ 0.0897 µM)

Question: And the MIC [9]?
Answer: 0.06 µg/mL (≈ 0.179 µM)

Question: And the MIC [28]?
Answer: 0.03 µg/mL (≈ 0.0897 µM)

Question: What about the MIC [29] of the same compound?
Answer: 0.06 µg/mL (≈ 0.179 µM)

Question: What about the MIC [30] of the same compound?
Answer: 0.5 µg/mL (≈ 1.5 µM)

Question: What about the MIC [31] of the same compound?
Answer: 0.13 µg/mL (≈ 0.389 µM)

Question: And the ED50 ([11]; in Mus musculus, read-out: PD50/treatment)?
Answer: 0.2 mg/kg

Question: And the ED50 ([13]; im, mice, i.m., E. coli A15119, read-out: PD50/treatment)?
Answer: 0.4 mg/kg

Question: And the MIC [32]?
Answer: 0.001 µg/mL (≈ 0.00299 µM)

Question: And the MIC [16]?
Answer: 2 µg/mL (≈ 5.98 µM)

Question: And the MIC [33]?
Answer: 0.03 µg/mL (≈ 0.0897 µM)

Question: What about the AUC ([18]; mouse, blood, im, 20 mg/kg) of the same compound?
Answer: 7700 ng·h/mL

Question: What about the Cmax ([18]; mouse, blood, im, 20 mg/kg) of the same compound?
Answer: 15500 ng/mL

Question: And the half-life ([18]; mouse, blood, im, 20 mg/kg)?
Answer: 11 min

Question: What about the ED50 [34] of the same compound?
Answer: 3 mg/kg

Question: And the MIC [35]?
Answer: 0.03 µg/mL (≈ 0.0897 µM)

Question: And the MIC [22]?
Answer: 0.13 µg/mL (≈ 0.389 µM)

Question: What about the ED50 [36] of the same compound?
Answer: 0.2 mg/kg

Question: And the MIC [23]?
Answer: 0.5 µg/mL (≈ 1.5 µM)

Question: And the MIC [24]?
Answer: 0.016 µg/mL (≈ 0.0478 µM)
